Experimental data from BindingDB's records for doi:10.1016/j.bmcl.2006.09.018 (Gsk, 2006).

Columns and labels:
[1] = molecular target: T1, Inhibitor of nuclear factor kappa-B kinase subunit beta (Homo sapiens, UniProt O14920); assay: IKK Kinase Inhibition Assay; settings: pH 7.4; 22 °C
T1 sequence (O14920 whole entry): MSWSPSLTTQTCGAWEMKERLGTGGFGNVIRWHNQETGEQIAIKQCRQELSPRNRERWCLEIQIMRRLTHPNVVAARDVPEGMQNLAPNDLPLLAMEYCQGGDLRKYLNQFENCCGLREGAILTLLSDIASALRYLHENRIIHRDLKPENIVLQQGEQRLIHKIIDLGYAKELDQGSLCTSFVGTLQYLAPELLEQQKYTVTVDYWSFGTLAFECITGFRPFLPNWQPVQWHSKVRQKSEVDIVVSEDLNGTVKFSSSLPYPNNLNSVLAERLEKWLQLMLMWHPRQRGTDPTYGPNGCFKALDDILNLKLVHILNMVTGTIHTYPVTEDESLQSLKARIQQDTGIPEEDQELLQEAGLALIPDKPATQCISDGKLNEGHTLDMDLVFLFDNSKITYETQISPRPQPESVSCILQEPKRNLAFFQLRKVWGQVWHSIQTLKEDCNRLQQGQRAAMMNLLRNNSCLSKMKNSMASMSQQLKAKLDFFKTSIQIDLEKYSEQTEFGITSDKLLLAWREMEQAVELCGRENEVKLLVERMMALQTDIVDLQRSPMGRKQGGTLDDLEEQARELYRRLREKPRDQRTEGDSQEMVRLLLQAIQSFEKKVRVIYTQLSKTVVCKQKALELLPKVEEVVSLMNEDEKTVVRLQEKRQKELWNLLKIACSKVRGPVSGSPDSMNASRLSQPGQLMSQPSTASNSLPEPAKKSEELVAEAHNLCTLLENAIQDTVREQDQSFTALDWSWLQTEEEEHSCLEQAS
Protocol: (§1) IKK kinase activity was assessed using a time-resolved fluorescence resonance energy transfer (TR-FRET) assay. The reaction was initiated by the addition of GST-IKBalpha substrate/ATP to the reaction buffer containing IKK kinase and test compounds. After incubation, detection reagent containing antiphosphoserine IKBalpha monoclonal antibody labelled with europium chelate, and an APC-labelled anti-GST antibody was added.

[2] = molecular target: Serine/threonine-protein kinase PLK1 (Homo sapiens, UniProt P53350); assay: Scintillation Proximity Assay (SPA); settings: pH 7.2; 22 °C
Protocol: The compound inhibitory activity was determined by incubation with purified PLK1 and biotinylated peptide substrate in the presence ATP/[gamma-33P]ATP. After incubation, the phosphorylated substrate was separated from nonincorporated radioactive ATP using SPA beads. Incorporated radioactivity was measured using Packard TopCount.

[3] = molecular target: T2, Inhibitor of nuclear factor kappa-B kinase subunit epsilon (Homo sapiens, UniProt Q14164); assay: IKK Kinase Inhibition Assay; settings: pH 7.4; 22 °C
T2 sequence (Q14164 whole entry): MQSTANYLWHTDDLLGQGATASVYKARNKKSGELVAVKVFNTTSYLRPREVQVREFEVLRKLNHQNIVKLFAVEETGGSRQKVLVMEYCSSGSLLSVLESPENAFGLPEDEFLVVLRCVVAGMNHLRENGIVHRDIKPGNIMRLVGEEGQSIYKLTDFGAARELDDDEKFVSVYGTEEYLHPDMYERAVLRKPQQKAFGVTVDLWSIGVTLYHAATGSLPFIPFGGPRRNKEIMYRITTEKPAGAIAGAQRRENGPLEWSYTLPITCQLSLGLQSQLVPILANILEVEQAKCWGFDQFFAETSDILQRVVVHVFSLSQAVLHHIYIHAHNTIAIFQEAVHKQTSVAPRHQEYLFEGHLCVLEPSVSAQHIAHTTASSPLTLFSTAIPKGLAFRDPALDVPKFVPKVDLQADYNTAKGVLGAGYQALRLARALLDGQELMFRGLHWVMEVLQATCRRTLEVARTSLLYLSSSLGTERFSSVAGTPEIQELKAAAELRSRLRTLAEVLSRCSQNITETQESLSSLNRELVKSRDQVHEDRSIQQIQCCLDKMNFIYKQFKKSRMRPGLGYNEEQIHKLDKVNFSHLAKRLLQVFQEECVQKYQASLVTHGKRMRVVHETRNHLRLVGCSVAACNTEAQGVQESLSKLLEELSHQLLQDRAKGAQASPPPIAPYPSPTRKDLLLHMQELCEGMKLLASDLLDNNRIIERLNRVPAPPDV
Protocol: as §1

Sequence of Serine/threonine-protein kinase PLK1 (P53350 whole entry): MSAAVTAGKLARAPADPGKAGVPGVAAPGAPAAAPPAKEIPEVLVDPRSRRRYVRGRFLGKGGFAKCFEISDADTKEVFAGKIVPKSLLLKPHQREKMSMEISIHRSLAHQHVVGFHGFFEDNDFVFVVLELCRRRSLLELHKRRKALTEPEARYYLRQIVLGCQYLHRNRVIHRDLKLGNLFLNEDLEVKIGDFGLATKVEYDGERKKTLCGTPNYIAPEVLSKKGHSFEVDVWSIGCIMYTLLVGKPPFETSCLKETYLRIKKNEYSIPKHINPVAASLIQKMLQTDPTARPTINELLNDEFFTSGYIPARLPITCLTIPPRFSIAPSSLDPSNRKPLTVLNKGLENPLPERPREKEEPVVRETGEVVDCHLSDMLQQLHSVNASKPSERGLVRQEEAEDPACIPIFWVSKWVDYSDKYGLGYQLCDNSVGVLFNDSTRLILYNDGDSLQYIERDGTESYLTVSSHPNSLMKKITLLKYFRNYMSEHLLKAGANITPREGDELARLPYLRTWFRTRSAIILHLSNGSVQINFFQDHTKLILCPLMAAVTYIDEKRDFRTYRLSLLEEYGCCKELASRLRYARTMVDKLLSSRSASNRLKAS

SMILES | IC50 [1] [µM] | IC50 [2] [nM] | IC50 [3] [µM]
COc1cc2ncn(-c3cc(OCc4ccc(S(C)(=O)=O)cc4)c(C#N)s3)c2cc1OC [5-(5,6-dimethoxy-1H-1,3-benzodiazol-1-yl)-3-[(4-methanesulfonylphenyl)methoxy]thiophene-2-carbonitrile] | > 15.8 |  | 
COc1cc2ncn(-c3cc(OCC4CCCO4)c(C#N)s3)c2cc1OC (stereo not given) [5-(5,6-dimethoxy-1H-1,3-benzodiazol-1-yl)-3-(oxolan-2-ylmethoxy)thiophene-2-carbonitrile] | > 15.8 | > 10000 | 
COc1cc2ncn(-c3cc(OCc4ccccc4S(C)(=O)=O)c(C#N)s3)c2cc1OC [5-(5,6-dimethoxy-1H-1,3-benzodiazol-1-yl)-3-[(2-methanesulfonylphenyl)methoxy]thiophene-2-carbonitrile] | > 15.8 |  | 
COc1cc2ncn(-c3cc(OCC4CCCO4)c(C(N)=O)s3)c2cc1OC (stereo not given) [5-(5,6-dimethoxy-1H-1,3-benzodiazol-1-yl)-3-(oxolan-2-ylmethoxy)thiophene-2-carboxamide] | > 15.8 |  | > 15.8
Cc1ccc(COc2cc(-n3cnc4ccccc43)sc2C(N)=O)cc1 [BMCL191018 Compound 9] |  | 126 | 3.98
COc1cc2ncn(-c3cc(OCc4ccc(S(C)(=O)=O)cc4)c(C(N)=O)s3)c2cc1OC [BMCL191018 Compound 39] | > 15.8 |  | > 15.8
